Measurements taken from patent US11168075B2, “Compounds and their use for reducing uric acid levels” (Acquist LLC, priority 2016, dated 2021).
Where two headings read alike, the source gives them in different places.

Biological target: xanthine oxidase (Homo sapiens (Human), UniProt P47989)
Assay: Fluorescence-based xanthine oxidase activity assay
Format: biochemical
Details: for inhibition of xanthine oxidase compared to allopurinol: statement in words
[1] = read-out: Xanthine Oxidase IC50

Chain of xanthine oxidase (P47989 whole entry, species assumed): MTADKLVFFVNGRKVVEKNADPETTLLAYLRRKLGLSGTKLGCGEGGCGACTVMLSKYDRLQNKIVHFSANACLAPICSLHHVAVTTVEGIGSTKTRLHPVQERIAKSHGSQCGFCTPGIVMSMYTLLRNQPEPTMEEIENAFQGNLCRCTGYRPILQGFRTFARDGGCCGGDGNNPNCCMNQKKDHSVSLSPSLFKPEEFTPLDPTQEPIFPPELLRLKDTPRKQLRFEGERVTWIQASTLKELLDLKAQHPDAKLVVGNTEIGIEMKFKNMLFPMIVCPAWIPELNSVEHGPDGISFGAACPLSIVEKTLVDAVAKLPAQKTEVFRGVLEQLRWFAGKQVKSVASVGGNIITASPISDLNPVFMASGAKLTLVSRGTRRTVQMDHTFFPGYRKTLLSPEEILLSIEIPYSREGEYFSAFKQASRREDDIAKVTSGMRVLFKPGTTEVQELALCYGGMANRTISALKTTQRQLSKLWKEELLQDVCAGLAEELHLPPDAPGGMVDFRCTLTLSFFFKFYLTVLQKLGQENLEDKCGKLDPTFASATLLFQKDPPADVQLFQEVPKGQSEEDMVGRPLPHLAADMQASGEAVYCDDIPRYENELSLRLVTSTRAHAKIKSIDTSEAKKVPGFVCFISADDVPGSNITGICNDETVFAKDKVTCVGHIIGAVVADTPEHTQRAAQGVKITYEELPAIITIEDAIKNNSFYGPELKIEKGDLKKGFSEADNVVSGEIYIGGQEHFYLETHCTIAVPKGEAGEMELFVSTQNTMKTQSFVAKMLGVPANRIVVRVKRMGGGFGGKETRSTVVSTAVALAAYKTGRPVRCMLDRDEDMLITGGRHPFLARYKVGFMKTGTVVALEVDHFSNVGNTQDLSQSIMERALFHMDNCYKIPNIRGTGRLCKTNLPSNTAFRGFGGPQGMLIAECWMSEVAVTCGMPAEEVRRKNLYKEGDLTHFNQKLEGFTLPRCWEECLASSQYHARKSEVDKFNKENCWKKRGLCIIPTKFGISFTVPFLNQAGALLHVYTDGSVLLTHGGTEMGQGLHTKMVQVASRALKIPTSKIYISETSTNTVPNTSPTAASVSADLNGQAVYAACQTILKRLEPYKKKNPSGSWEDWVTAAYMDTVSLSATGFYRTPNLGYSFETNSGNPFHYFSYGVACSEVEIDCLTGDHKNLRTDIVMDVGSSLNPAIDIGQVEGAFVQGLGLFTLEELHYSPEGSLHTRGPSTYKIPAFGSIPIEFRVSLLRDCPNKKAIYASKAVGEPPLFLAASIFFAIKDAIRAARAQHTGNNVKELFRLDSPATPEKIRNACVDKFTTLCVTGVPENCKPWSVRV

## Cn1c(O)c(C(=N)Nc2ccc(-c3cnn[nH]3)cc2)c(=O)n(C)c1=O [Formula (If), N-(4-(1H-1,2,3-triazol-5-yl)phenyl)-6-hydroxy-1,3-dimethyl-2,4-dioxo-1,2,3,4-tetrahydropyrimidine-5-carboximidamide]
[1]
  IC50: 0.2 µM
  inhibition of xanthine oxidase compared to allopurinol: particularly potent inhibitors

## Nc1[nH]c(=O)[nH]c(=O)c1C(=O)Nc1ccc(-c2c[nH]nn2)cc1 [Formula (Ik), N-(4-(1H-1,2,3-triazol-5-yl)phenyl)-6-amino-2,4-dioxo-1,2,3,4-tetrahydropyrimidine-5-carboxamide]
[1]
  IC50: 1.3 µM
  inhibition of xanthine oxidase compared to allopurinol: particularly potent inhibitors

## Cn1c(=O)[nH]c(O)c(C(=O)Nc2ccc(-c3cnn[nH]3)cc2)c1=O [Formula (Ig), N-(4-(1H-1,2,3-triazol-4-yl)phenyl)-2,4-dihydroxy-1-methyl-6-oxo-1,6-dihydropyrimidine-5-carboxamide]
[1]
  IC50: 0.55 µM
  inhibition of xanthine oxidase compared to allopurinol: particularly potent inhibitors

## CS/C(=N\c1ccc(-c2cnn[nH]2)cc1)c1c(O)[nH]c(=O)[nH]c1=O [Formula (Ib), 5-(((4-(1H-1,2,3-triazol-5-yl)phenyl)amino)(methylthio)methylene)pyrimidine-2,4,6(1H,3H,5H)-trione]
  IC50: 54.1 µM

## O=C1NS(=O)(=O)c2cc(NC(=O)c3c(O)[nH]c(=O)[nH]c3=O)ccc21 [Formula (IIIa), N-(1,1-dioxido-3-oxo-2,3-dihydrobenzo[d]isothiazol-6-yl)-2,4,6-trihydroxypyrimidine-5-carboxamide]
[1]
  IC50: 4.5 µM

## O=c1nc2[nH]n(-c3ccc(-c4cnn[nH]4)cc3)c(=O)c2c(O)[nH]1 [Formula (VIIa), 2-(4-(1H-1,2,3-triazol-5-yl)phenyl)-4,6-dihydroxy-1H-pyrazolo[3,4-d]pyrimidin-3(2H)-one]
[1]
  IC50: 7 µM

## N=C(Nc1ccc(-c2cnn[nH]2)cc1)c1c(O)[nH]c(=O)[nH]c1=O [Formula (Ia), N-(4-(1H-1,2,3-triazol-4-yl)phenyl)-6-hydroxy-2,4-dioxo-1,2,3,4-tetrahydropyrimidine-5-carboximidamide]
[1]
  IC50: 0.25 µM
  inhibition of xanthine oxidase compared to allopurinol: particularly potent inhibitors

## O=C(Nc1c(O)[nH]c(=O)[nH]c1=O)c1ccc(-c2cnn[nH]2)cc1 [Formula (Il), 4-(1H-1,2,3-triazol-4-yl)-N-(2,4,6-trioxohexahydropyrimidin-5-yl)benzamide]
  IC50: 6.3 µM

## O=C(Nc1ccc(-c2noc(C(F)(F)F)n2)cc1)c1c(O)[nH]c(=O)[nH]c1=O [Formula (In), 6-hydroxy-2,4-dioxo-N-(4-(5-(trifluoromethyl)-1,2,4-oxadiazol-3-yl)phenyl)-1,2,3,4-tetrahydropyrimidine-5-carboxamide]
  IC50: 292 µM

## O=C(Nc1nc(O)c2cn[nH]c2n1)c1c(O)[nH]c(=O)[nH]c1=O [Formula (Va), 6-hydroxy-N-(4-hydroxy-1H-pyrazolo[3,4-d]pyrimidin-6-yl)-2,4-dioxo-1,2,3,4-tetrahydropyrimidine-5-carboxamide]
[1]
  IC50: 36.1 µM

## O=c1[nH]c(O)c(/C(=N\O)Nc2ccc(-c3cnn[nH]3)cc2)c(=O)[nH]1 [Formula (Ic), (E)-N-(4-(1H-1,2,3-triazol-5-yl)phenyl)-N′-hydroxy-2,4,6-trioxohexahydro-pyrimidine-5-carboximidamide]
  IC50: 1.2 µM

## N/N=C(/Nc1ccc(-c2cnn[nH]2)cc1)c1c(O)[nH]c(=O)[nH]c1=O [Formula (Id), (E)-N-(4-(1H-1,2,3-triazol-5-yl)phenyl)-2,4,6-trioxohexahydropyrimidine-5-carbohydrazonamide]
  IC50: > 300 µM

## Cn1c(=O)[nH]c(O)c(C(=N)Nc2ccc(-c3cnn[nH]3)cc2)c1=O [Formula (Ih)]
  IC50: 0.74 µM
  inhibition of xanthine oxidase compared to allopurinol: particularly potent inhibitors

## O=C1Nc2ccc(NC(=O)c3c(O)[nH]c(=O)[nH]c3=O)cc2C1=O [Formula (IVb), N-(2,3-dioxoindolin-5-yl)-6-hydroxy-2,4-dioxo-1,2,3,4-tetrahydropyrimidine-5-carboxamide]
[1]
  IC50: > 300 µM

## Cn1c(=O)c2c(Nc3ccc(-c4cnn[nH]4)cc3)n[nH]c2n(C)c1=O [Formula (VIc), 3-((4-(1H-1,2,3-triazol-5-yl)phenyl)amino)-5,7-dimethyl-1H-pyrazolo[3,4-d]pyrimidine-4,6(5H,7H)-dione]
[1]
  IC50: 2.5 µM

## CC(C)Sc1nc(O)c(C(=O)Nc2ccc(-c3c[nH]nn3)cc2)c(=O)[nH]1 [Formula (IId), N-(4-(1H-1,2,3-triazol-5-yl)phenyl)-4-hydroxy-2-(isopropylthio)-6-oxo-1,6-dihydropyrimidine-5-carboxamide]
  inhibition of xanthine oxidase compared to allopurinol: particularly potent inhibitors

## O=C(NO)c1ccc(NC(=O)c2c(O)[nH]c(=O)[nH]c2=O)cc1 [Formula (VIIIa), 6-hydroxy-N-(4-(hydroxycarbamoyl)phenyl)-2,4-dioxo-1,2,3,4-tetrahydropyrimidine-5-carboxamide]
[1]
  IC50: 17.4 µM

## O=C(NC1CCC(O)(c2c[nH]nn2)CC1)c1c(O)[nH]c(=O)[nH]c1=O (stereo not shown) [Formula (Ij), 6-hydroxy-N-(4-hydroxy-4-(1H-1,2,3-triazol-4-yl)cyclohexyl)-2,4-dioxo-1,2,3,4-tetrahydropyrimidine-5-carboxamide]
[1]
  IC50: 13.1 µM

## O=c1[nH]c(=O)c2c(Nc3ccc(-c4cnn[nH]4)cc3)n[nH]c2[nH]1 [Formula (VIb), 3-((4-(1H-1,2,3-triazol-5-yl)phenyl)amino)-1H-pyrazolo[3,4-d]pyrimidine-4,6(5H,7H)-dione]
[1]
  IC50: 0.14 µM
  inhibition of xanthine oxidase compared to allopurinol: particularly potent inhibitors

## O=C(Nc1ccc2[nH]c(=O)[nH]c2c1)c1c(O)[nH]c(=O)[nH]c1=O [Formula (IVa), 6-hydroxy-2,4-dioxo-N-(2-oxo-2,3-dihydro-1H-benzo[d]imidazol-5-yl)-1,2,3,4-tetrahydropyrimidine-5-carboxamide]
[1]
  IC50: 8.6 µM

## O=C(Nc1ccc2c(c1)C1(OCCO1)C(=O)N2)c1c(O)[nH]c(=O)[nH]c1=O [Formula (IVc), 6-Hydroxy-2,4-dioxo-N-(2′-oxospiro[[1,3]dioxolane-2,3′-indolin]-5′-yl)-1,2,3,4-tetrahydropyrimidine-5-carboxamide]
  IC50: > 300 µM

## COc1nc(O)c(C(=O)Nc2ccc(-c3cnn[nH]3)cc2)c(=O)[nH]1 [Formula (IIb), N-(4-(3H-1,2,3-triazol-4-yl)phenyl)-4-hydroxy-2-methoxy-6-oxo-1,6-dihydropyrimidine-5-carboxamide]
[1]
  IC50: 0.56 µM
  inhibition of xanthine oxidase compared to allopurinol: particularly potent inhibitors

## Cn1c(O)c(C(=O)Nc2ccc(-c3cnn[nH]3)cc2)c(=O)n(C)c1=O [Formula (Ie), N-(4-(1H-1,2,3-triazol-4-yl)phenyl)-6-hydroxy-1,3-dimethyl-2,4-dioxo-1,2,3,4-tetrahydropyrimidine-5-carboxamide]
[1]
  IC50: 1.6 µM
  inhibition of xanthine oxidase compared to allopurinol: particularly potent inhibitors

## O=C(NC1CCC(c2c[nH]nn2)CC1)c1c(O)[nH]c(=O)[nH]c1=O (stereo not shown) [Formula (Ii)]
[1]
  IC50: > 296 µM

## O=C(NO)c1cc(NC(=O)c2c(O)[nH]c(=O)[nH]c2=O)ccn1 [Formula (VIIIb), 6-hydroxy-N-(2-(hydroxycarbamoyl)pyridin-4-yl)-2,4-dioxo-1,2,3,4-tetrahydropyrimidine-5-carboxamide]
[1]
  IC50: 73.8 µM

## O=C(Nc1ccc(-c2[nH]nnc2-c2ccccc2)cc1)c1c(O)[nH]c(=S)[nH]c1=O [Formula (Im), 6-hydroxy-4-oxo-N-(4-(4-phenyl-1H-1,2,3-triazol-5-yl)phenyl)-2-thioxo-1,2,3,4-tetrahydropyrimidine-5-carboxamide]
[1]
  IC50: 18.2 µM
